Data: US5547972A, “Therapeutic agents useful for treating inflammatory diseases” (The Boots Company PLC, priority 1991, dated 1996)
Counter-ions that a name gives are not always drawn. Like-named read-outs stand apart in the source and are kept apart here.

Experiments:
platelet aggregation = details: in vitro; Il Farmaco, 44 (5), 495-502, 1989; cited from earlier work
[1] = alleged in literature; cited from earlier work
mice = details: in mice; cited from earlier work
[2] = tested on: Zymosan Stimulated Macrophaqes; experiment: Test A: Inhibition of Arachidonic Acid Release from Zymosan Stimulated Macrophages; assay type: cell-based, mouse (female MF1); details: inhibition of arachidonic acid release, six concentrations (100, 50, 20, 10, 5 and 1 μM), 5 h with zymosan, read-out: Test A IC50
In short: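 Peritoneal macrophages from female MF1 mice, labelled overnight with [3H]-arachidonic acid (1.6 μCi/ml final), adherent cells pretreated 24 h with drug, then stimulated 5 h with fresh drug plus stimulus at 37° C. Released label counted by scintillation; net stimulated release inhibition at 1–100 μM gives IC50.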

[3] = tested on: Carrageenan-induced rat paw oedema; experiment: Test B: Carrageenan-induced rat paw oedema test; assay type: in vivo, rat (female); details: inhibition of paw oedema, 1 h before carrageenan, 3 h after injection; for inhibition in vivo at 100 mg/kg: Rattus norvegicus, po, 3 h
Protocol: Carrageenan-induced rat paw oedema test
Female rats, weight range 125-150 g were fasted overnight. One of the hind legs of each animal was marked with a line at the connection between the cuboid/navicular and calcaneus/talus bones. Groups of six rats were orally dosed at 10 ml/kg, in random order, with a given dose of the test compound given as a solution or suspension in 10% (w/v) aqueous acacia solution.
One hour after dosing, 0.1 ml of 1% (w/v) sterile carrageenan λ in normal saline was injected deeply into the plantar surface of the marked hind foot of each rat. The volume of the foot (up to the marked line) was measured immediately after injection using duplicate water displacement readings. Three hours after injection the foot volume was measured again and the percentage increase in foot volume relative to the initial reading was calculated.
The increase in foot volume (i.e. the degree of oedema) in drug treated animals when compared with that in the drug untreated control gave the degree of inhibition of paw oedema by the drug.
Compounds were considered to be active in this test if they produced a 20% or greater inhibition of paw oedema in at least two out of three tests after oral dosing at 100 mg/kg. Statistical significance was assessed using the Student't test for single dose studies and Dunnett's test for multiple dose studies. More advantageous compounds were active in both Tests A and B,

Row | Compound | IC50 ([2]; Mus musculus, Macrophage, 5 h) [µM] | inhibition in vivo at 100 mg/kg [3] [%] | also measured
1 | CC(CCn1ccnc1)NCc1ccccc1 (stereo not shown) [Compound A] |  |  | inhibitory effect on platelet aggregation (platelet aggregation): inhibitory effect on platelet aggregation in vitro
2 | CCC(NCC(C)N1CCOCC1)c1ccc(Cl)c(Cl)c1 (stereo not drawn) [N-[2-(4-Morpholino)propyl]-α-ethyl-3,4-dichlorobenzylamine] |  |  | antiinflammatory activity [1]: antiinflanmmtory activity; undesirable side-effects (mice): wide range of undesirable side-effects in mice
3 | CC(NCCCCn1ccnc1)c1ccc(Cl)cc1 (stereo not shown) [Example 26, N-[1-(4-Chlorophenyl)ethyl]-4-(imidazol-1-yl)butylamine] | 56 | 40 | 
4 | c1ccc(Oc2ccc(CNCCCn3ccnc3)cc2)cc1 [Example 39, 3-(Imidazol-1-yl)-N-(4-phenoxybenzyl)propylamine] | 10 | 35 | 
5 | CC(NCCCn1ccnc1-c1ccccc1)c1ccc(Cl)cc1 (stereo not shown) [Example 25, N-[1-(4-Chlorophenyl)ethyl]-3-(2-phenylimidazol-1-yl)propylamine dihydrochloride hydrate] | 19 | 34 | 
6 | Clc1ccc(CNCCCn2ccnc2)cc1Cl [Example 35, N-(3,4-dichlorobenzyl)-3-(imidazol-1-yl)propylamine] | 21 | 47 | 
7 | CC(C)(NCCCn1ccnc1)c1ccc(Cl)cc1 [Example 59, N-[1-(4-chlorophenyl)-1-methylethyl]-3-(imidazol-1-yl)propylamine] |  | 65 | IC50 ([2]; listed as 68 (1)): 35 µM; IC50 [2]: 35 µM
8 | Cc1nccn1CCCNC(C)c1ccc(Cl)cc1 (stereo not shown) [Example 27, N-[1-(4-Chlorophenyl)ethyl]-3-(2-methylimidazol-1-yl)propylamine dihydrochloride] | 8 | 27 | 
9 | CC(NCCCn1ccnc1)c1ccc(Cl)cc1 (single isomer, unassigned; (-)) [Example 92, (-) N-[1-(4-chlorophenyl)ethyl]-3-(imidazol-1-yl)propylamine (-)-ditartrate] |  |  | IC50 [2]: 20 µM; Test B % inhibition at 100 mg/kg ([3]; oral): 48%
10 | CCOC(=O)C=Cc1ccc(CNCCCn2ccnc2C)cc1 [Example 51, ethyl 4-[3-(2-methylimidazol-1-yl)propylaminomethyl]cinnamate dihydrochloride] | 20 | 1 | 
11 | CC(=O)OCc1ncn(CCCNC(C)(C)c2ccc(Cl)cc2)c1C [Example 98, 1-{3-[1-(4-chlorophenyl)-1-methylethylamino]propyl}-5-methylimidazol-4-ylmethyl acetate dihydrochloride] | 45 | 4 | 
12 | CC(NCCCn1ccnc1)c1ccc(Cl)c(F)c1 (stereo not shown) [Example 10, N-[1-(4-Chloro-3-fluorophenyl)ethyl]-3-(imidazol-1-yl)propylamine dihydrochloride] | 40 | 49 | 
13 | CC(NCCCn1ccnc1)c1ccc(OCc2ccccc2)cc1 (stereo not shown) [Example 5, N-[1-(4-Benzyloxyphenyl)ethyl]-3-(imidazol-1-yl)propylamine] | 12 | 5 | 
14 | CC(C)(NCCCn1cnc(CO)c1)c1ccc(-c2ccccc2)cc1 [Example 85, 1-{3-[1-(4-biphenylyl)-1-methylethylamino]propyl}imidazol-4-yl-methanol] | 45 | 0 | 
